Measured values: publication PMC8198049, “Synthesis and Evaluation of the Tetracyclic Ring-System of Isocryptolepine and Regioisomers for Antimalarial, Antiproliferative and Antimicrobial Activities” (Molecules, 2021)
Values after ≈ are worked out from the molar mass of the structure shown.

Key:
[1] = tested on: MDA-MB-231 (human breast adenocarcinoma); experiment: Antiproliferative assay (resazurin); type: cell-based; settings: for IC50: Homo sapiens, MDA-MB-231, 72 h compound incubation, mean ± sem, two separate experiments
Procedure: (§1) Compounds tested in the antiproliferative assays were tested in 11 dilution points (0.02 µM–40 µM or 0.04 µM–80 µM). […] HCT116 cells were maintained in McCoy’s 5A media (Life Technologies, CA, USA), MDA-MB-231 cells were cultured in DMEM media (Life Technologies) with 10 mM HEPES (Life Technologies), whilst PC-3 cells were maintained in RPMI media (Life Technologies). All media were supplemented with 10% heat-inactivated fetal bovine serum (Australian source; Corning, CA, USA) and all cells were incubated at 37 °C in a humidified incubator with 5% CO2. Cells were seeded in 384-well plates (Greiner Bio-One, NC, USA) using the respective complete media. After 24 h cell seeding, compounds were added and antiproliferative activity was determined using the resazurin assay after 72 h compound incubation. Briefly, cells were incubated with 60 µM resazurin (Cayman, MI, USA) for 6 h at 37 °C and fluorescence signals were measured using a microplate reader (EnSight, PerkinElmer, Waltham, MA, USA).

[2] = tested on: PC-3 (human prostate cancer); experiment: Antiproliferative assay (resazurin); type: cell-based; settings: for IC50: Homo sapiens, 72 h compound incubation, mean ± sem, two separate experiments; for % at 80 µM (PC-3): PC-3, 80 µM
Procedure: as §1

[3] = tested on: HCT116 (human colon cancer); experiment: Antiproliferative assay (resazurin); type: cell-based; settings: Homo sapiens, HCT-116; 72 h compound incubation; mean ± sem, two separate experiments
Procedure: as §1

[4] = Cytotoxicity assay (resazurin-based viability); type: cell-based; settings: human, HEK293 cells, mean ± standard deviation, two separate experiments
Procedure: Fluorescence was measured using an EnSight plate reader (PerkinElmer, Waltham, MA, USA).

[5] = tested on: HCT116, MDA-MB-231 and PC-3; experiment: Antiproliferative assay, whole panel of cancer cell lines; type: cell-based, human
Procedure: as §1

[6] = tested on: Plasmodium falciparum 3D7 strain; experiment: Antiplasmodial imaging assay; type: cell-based; settings: P. falciparum 3D7, 72 h, mean ± standard deviation, two separate experiments; for IC50: Plasmodium falciparum
Procedure: (§2) Compounds tested in the antiproliferative assays were tested in 11 dilution points (0.02 µM–40 µM or 0.04 µM–80 µM).
(§3) Antiplasmodial activity was determined as previously described by Duffy and Avery. […] After incubation, plates were stained with 4’,6-diamidino-2-phenylindole (DAPI) in a permeabilization buffer for 5 h at rt in the dark. Plates were imaged on the Opera confocal microplate image reader (PerkinElmer).

[7] = Antiplasmodial imaging assay; type: cell-based, Plasmodium falciparum; settings: human (HEK293) and Plasmodium falciparum (3D7), HEK293 cells versus Plasmodium falciparum 3D7 culture; HEK293 vs 3D7; read-out: SI (selectivity index = cytotoxicity in HEK293/activity in 3D7)
Procedure: as §2, §3

[8] = tested on: S. aureus (ATCC 25923); experiment: Bacterial growth inhibition assay; type: cell-based, Staphylococcus aureus; settings: Staphylococcus aureus, ATCC25923
Procedure: (§4) The prepared samples were tested for in vitro antimicrobial activity against E. faecalis, E. coli, P. aeruginosa, S. aureus, Streptococcus agalactiae and S. epidermis using gentamycin as a reference compound.
(§5) To determine and quantify antimicrobial activity, a bacteria growth inhibition assay in liquid media was executed. Compounds 2–3, 4, 8–10, 13–14, 16, 18, and 20 were tested against Staphylococcus aureus (ATCC 25923), Escherichia coli (ATCC 259233), Enterococcus faecialis (ATCC 29122), Pseudomonas aeruginosa (ATCC 27853) and Streptococcus agalactiae (ATCC 12386); all strains from LGC Standards (Teddington, UK). S. aureus, E. coli, and P. aeruginosa were grown in Muller Hinton broth (275730, Becton, Franklin Lakes, NJ, USA). E. faecalis and S. agalactiae were cultured in brain hearth infusion broth (53286, Sigma, St Louise, MO, USA). Fresh bacterial colonies were transferred in the respective medium and incubated at 37 °C overnight. The bacterial cultures were diluted to a culture density representing the log phase and µL/well were pipetted into a 96-well microtiter plate (734–2097, NunclonTM, Thermo Scientific, Waltham, MA, USA). The final cell density was 1500–15.000 colony forming units/well. The compound was diluted in 2% (v/v) DMSO in ddH2O, providing a final assay concentration of 50% of the prepared sample, since 50 µL of sample in DMSO/water were added to 50 µL bacterial culture. After adding the samples to the plates, they were incubated overnight at 37 °C and the growth was determined by measuring the optical density at λ = 600 nm (OD600) with a 1420 Multilabel Counter VICTOR3TM (Perkin Elmer, Waltham, MA, USA). A water sample was used as a reference control, growth medium without bacteria was used as a negative control and dilution series of gentamycin (A2712, Merck, Darmstadt, DE) from 32 to 0.01 µg/mL was used as positive control and visually inspected for bacterial growth. The positive control was used as a system suitability test and the results of the antimicrobial assay were only considered valid when positive control was passed. The final concentration of DMSO in the assays was ≤2% (v/v) and was known to have no effect in the tested bacteria. The data was processed using GraphPad Prism 8.

[9] = tested on: E. faecalis (ATCC 29122); experiment: Bacterial growth inhibition assay; type: cell-based, Enterococcus faecialis; settings: Enterococcus faecalis, ATCC29122
Procedure: as §4, §5

[10] = tested on: Streptococcus agalactiae (ATCC 12386); experiment: Bacterial growth inhibition assay; type: cell-based; settings: ATCC12386
Procedure: as §4, §5

Row | SMILES | IC50 [1] | IC50 [2] | IC50 [3] | IC50 [6] | IC50 at 72 h [4] | activity against the panel of cancer cell lines [5] | selectivity ratio at 72 h [7] | also measured
1 | CCN(CC)CCCC(C)Nc1ccnc2cc(Cl)ccc12 (stereo not drawn) [Chloroquine, chloroquine, reference compound] |  |  |  |  | > 4000 nM |  |  | 
2 | CN1C=Cc2nc3ccccc3c3cccc1c23 [Compound 8a, 4-Methyl-4H-pyrido[4,3,2-gh]phenanthridine] | 360 ± 51 nM | 2570 ± 114 nM | 444 ± 52 nM | 1698 ± 5 nM | 7410 ± 207 nM |  | 4.4 | MIC [8]: 75 µM (≈ 17.4 µg/mL); MIC [9]: 75 µM (≈ 17.4 µg/mL); melting point: 182 to 183 °C
3 | C=CCn1cc2c3ccccc3nc-2c2ccccc21 [Compound 3c, 5-Allyl-5H-indolo[3,2-c]quinoline] | 3060 ± 467 nM | 1300 ± 51 nM | 1240 ± 80 nM | 1200 ± 32 nM | 3150 ± 40 nM |  | 2.6 | 
4 | c1ccc2nc3[nH]c4ccccc4c3cc2c1 [Compound 13, 6H-Indolo[2,3-b]quinoline] |  |  |  |  |  | inactive |  | 3D7 IC50 [6]: no antiplasmodial inhibition

Further lines, with some results ahead:

Row | IC50 [1] | IC50 [2] | IC50 [3] | IC50 [6] | SMILES | IC50 at 72 h [4] | activity against the panel of cancer cell lines [5] | selectivity ratio at 72 h [7] | also measured
5 | 590 nM | 830 nM | 150 nM |  | COc1cccc2c1C(=O)c1c(O)c3c(c(O)c1C2=O)C[C@@](O)(C(=O)CO)C[C@@H]3O[C@H]1C[C@H](N)[C@H](O)[C@H](C)O1 [Doxorubicin, reference compound] |  |  |  | 
6 |  |  | 3570 ± 309 nM | 977 ± 11 nM | c1ccc2c(c1)ncc1c3ccccc3[nH]c21 [Compound 14, 11H-indolo[3,2-c]quinoline] | 18460 ± 183 nM | poor activity | 18.9 | % at 80 µM (printed in MDA-MB-231 IC50 column) ([1]; MDA-MB-231, 80 µM): 36% at 80 µM ^e; % at 80 µM (PC-3) [2]: 30% at 80 µM ^f
7 |  |  |  | 1 ± 0.07 nM | C[C@H]1[C@@H](O)O[C@@H]2O[C@@]3(C)CC[C@H]4[C@H](C)CC[C@@H]1[C@@]24OO3 [DHA, dihydroartemisinin, reference compound] |  |  | 74 | 
8 |  |  |  | 380 ± 0.5 nM | C[n+]1cccc2c3[nH]c4ccccc4c3ccc21 [Compound 21, 4-Methyl-11H-pyrido[3,2-a]carbazolium Iodide] |  | no activity |  | 
9 | 10400 nM |  | 6220 ± 90 nM | 7249 ± 6 nM | Cn1c2nc3ccccc3c-2cc2ccccc21 [Neocryptolepine (2), Neocryptolepine] | > 20000 nM |  | > 2.8 | MIC [10]: 100 µM (≈ 23.2 µg/mL); % at 80 µM (PC-3) [2]: 27% at 80 µM
